# Legend:
# [1] = test system: deep partial thickness wounds; experiment: 7% bacitracin zinc ointment with and without polyurethane occlusion, healing of deep partial thickness wounds (Example II); type: in vivo, white Yorkshire pigs
# From the text: To test the effect of bacitracin zinc on epidermal resurfacing, approximately 60 rectangular wounds measuring 7 mm wide, 10 mm long, and 0.5 mm deep were made in each of eighteen white Yorkshire pigs in the paravertebral and thoracic areas with a Castroviejo keratome. The electrokeratome was fitted with a razor blade modified so that the cutting edge was reduced to 7 mm. The wounds were separated from one another by at least 15 mm of normal skin.
# The bacitracin zinc was applied in impregnated foam shortly (within 5 minutes) after wounding on day 0 and once daily thereafter for 7 days. In order to rule out the possibility that wounds made in different anatomical regions heal at different rates the regions used for each treatment group varied for each animal.
# Two days after wounding and each day thereafter some of the wounds with surrounding normal skin were excised from each treatment group. The excisions were made with a Castroviejo keratome fitted with a 22 mm blade, set to cut at a depth of 0.7 mm. After incubating the specimens in 2N sodium bromide at 37° C. for three hours, the epidermis was separated from the dermis and the epidermal sheet (22 sq mm) was assessed for re-epithelialization as previously described. Briefly, this method is a macroscopic examination of the separated epidermis for defects. Defects are visualized as holes in the separated epidermal sheet or as a lack of epidermal continuum in the area that contain the wound. The wound is considered re-epithelialized if there are no defects in the epidermis and not re-epithelialized if there are one or more defects.
# Further tests were conducted to determine the effect of bacitracin zinc covered with an occlusive film. The wounds in these were treated according to one of four treatment regiments: (1) untreated; (2) polyurethane film; (3) 7% bacitracin zinc ointment, and (4) 7% bacitracin zinc ointment plus polyurethane film. The methodology employed was substantially the same as in Example I.
# [2] = test system: partial thickness wounds; experiment: Topically applied bacitracin zinc 3% to 9%, healing of partial thickness wounds (Example III); type: in vivo, white Yorkshire pigs
# From the text: To test the effect of bacitracin zinc on epidermal resurfacing, approximately 60 rectangular wounds measuring 7 mm wide, 10 mm long, and 0.5 mm deep were made in each of eighteen white Yorkshire pigs in the paravertebral and thoracic areas with a Castroviejo keratome. The electrokeratome was fitted with a razor blade modified so that the cutting edge was reduced to 7 mm. The wounds were separated from one another by at least 15 mm of normal skin. The bacitracin zinc was applied in impregnated foam shortly (within 5 minutes) after wounding on day 0 and once daily thereafter for 7 days. In order to rule out the possibility that wounds made in different anatomical regions heal at different rates the regions used for each treatment group varied for each animal. Two days after wounding and each day thereafter some of the wounds with surrounding normal skin were excised from each treatment group. The excisions were made with a Castroviejo keratome fitted with a 22 mm blade, set to cut at a depth of 0.7 mm. After incubating the specimens in 2N sodium bromide at 37° C. for three hours, the epidermis was separated from the dermis and the epidermal sheet (22 sq mm) was assessed for re-epithelialization as previously described. Briefly, this method is a macroscopic examination of the separated epidermis for defects. Defects are visualized as holes in the separated epidermal sheet or as a lack of epidermal continuum in the area that contain the wound. The wound is considered re-epithelialized if there are no defects in the epidermis and not re-epithelialized if there are one or more defects. To more accurately assess the effective range of bacitracin concentrations,bacitracin zinc containing ointments were prepared with concentrations ranging from 3% to 9%. The methodology employed was substantially the same as in Example I.
# [3] = bacitracin zinc as 7% ointment, listed as BAC. ZN
substance,measurement,setting,value
bacitracin zinc,HT50 (time in days for 50% of wounds to be completely healed),[1]; bacitracin zinc as 7% ointment,4.1 days
same,rate of healing COMPARED WITH PU FILM,[1]; bacitracin zinc as 7% ointment,about 4%
same,rate of healing Compared with Untreated,[1]; bacitracin zinc as 7% ointment,about 24%
same,rate of healing COMPARED WITH PU FILM,[1]; [3],+4%
same,rate of healing Compared with Untreated,[1]; [3],+24%
same,% of wounds healed,"[1]; day 2 after wounding, bacitracin zinc as 7% ointment",0%
same,% of wounds healed,"[1]; day 3 after wounding, bacitracin zinc as 7% ointment",19%
same,% of wounds healed,"[1]; day 4 after wounding, bacitracin zinc as 7% ointment",42%
same,% of wounds healed,"[1]; day 5 after wounding, bacitracin zinc as 7% ointment",77%
same,% of wounds healed,"[1]; day 6 after wounding, bacitracin zinc as 7% ointment",92%
same,% of wounds healed,"[1]; day 7 after wounding, bacitracin zinc as 7% ointment",100%
same,further enhancement in the rate of healing over bacitracin zinc used alone,[1]; semipermeable occlusive film applied over the bacitracin zinc impregnated pad,20%
same,% of wounds healed,"[2]; 3.0% bacitracin zinc, day 2 after wounding",0%
same,% of wounds healed,"[2]; 3.0% bacitracin zinc, day 3 after wounding",0%
same,% of wounds healed,"[2]; 3.0% bacitracin zinc, day 4 after wounding",33%
same,% of wounds healed,"[2]; 3.0% bacitracin zinc, day 5 after wounding",55%
same,% of wounds healed,"[2]; 3.0% bacitracin zinc, day 6 after wounding",90%
same,% of wounds healed,"[2]; 3.0% bacitracin zinc, day 7 after wounding",100%
same,% of wounds healed,"[2]; 4.0% bacitracin zinc, day 2 after wounding",0%
same,% of wounds healed,"[2]; 4.0% bacitracin zinc, day 3 after wounding",5%
same,% of wounds healed,"[2]; 4.0% bacitracin zinc, day 4 after wounding",45%
same,% of wounds healed,"[2]; 4.0% bacitracin zinc, day 5 after wounding",60%
same,% of wounds healed,"[2]; 4.0% bacitracin zinc, day 6 after wounding",96%
same,% of wounds healed,"[2]; 4.0% bacitracin zinc, day 7 after wounding",100%
same,% of wounds healed,"[2]; 5.0% bacitracin zinc, day 2 after wounding",0%
same,% of wounds healed,"[2]; 5.0% bacitracin zinc, day 3 after wounding",9%
same,% of wounds healed,"[2]; 5.0% bacitracin zinc, day 4 after wounding",48%
same,% of wounds healed,"[2]; 5.0% bacitracin zinc, day 5 after wounding",71%
same,% of wounds healed,"[2]; 5.0% bacitracin zinc, day 6 after wounding",95%
same,% of wounds healed,"[2]; 5.0% bacitracin zinc, day 7 after wounding",100%
same,% of wounds healed,"[2]; 5.5% bacitracin zinc, day 2 after wounding",0%
same,% of wounds healed,"[2]; 5.5% bacitracin zinc, day 3 after wounding",15%
same,% of wounds healed,"[2]; 5.5% bacitracin zinc, day 4 after wounding",55%
same,% of wounds healed,"[2]; 5.5% bacitracin zinc, day 5 after wounding",75%
same,% of wounds healed,"[2]; 5.5% bacitracin zinc, day 6 after wounding",98%
same,% of wounds healed,"[2]; 5.5% bacitracin zinc, day 7 after wounding",100%
same,% of wounds healed,"[2]; 6.0% bacitracin zinc, day 2 after wounding",0%
same,% of wounds healed,"[2]; 6.0% bacitracin zinc, day 3 after wounding",20%
same,% of wounds healed,"[2]; 6.0% bacitracin zinc, day 4 after wounding",59%
same,% of wounds healed,"[2]; 6.0% bacitracin zinc, day 5 after wounding",78%
same,% of wounds healed,"[2]; 6.0% bacitracin zinc, day 6 after wounding",98%
same,% of wounds healed,"[2]; 6.0% bacitracin zinc, day 7 after wounding",100%
same,% of wounds healed,"[2]; 6.5% bacitracin zinc, day 2 after wounding",0%
same,% of wounds healed,"[2]; 6.5% bacitracin zinc, day 3 after wounding",33%
same,% of wounds healed,"[2]; 6.5% bacitracin zinc, day 4 after wounding",65%
same,% of wounds healed,"[2]; 6.5% bacitracin zinc, day 5 after wounding",88%
same,% of wounds healed,"[2]; 6.5% bacitracin zinc, day 6 after wounding",100%
same,% of wounds healed,"[2]; 6.5% bacitracin zinc, day 7 after wounding",100%
same,% of wounds healed,"[2]; 7.0% bacitracin zinc, day 2 after wounding",0%
same,% of wounds healed,"[2]; 7.0% bacitracin zinc, day 3 after wounding",40%
same,% of wounds healed,"[2]; 7.0% bacitracin zinc, day 4 after wounding",70%
same,% of wounds healed,"[2]; 7.0% bacitracin zinc, day 5 after wounding",96%
same,% of wounds healed,"[2]; 7.0% bacitracin zinc, day 6 after wounding",100%
same,% of wounds healed,"[2]; 7.0% bacitracin zinc, day 7 after wounding",100%
same,% of wounds healed,"[2]; 7.5% bacitracin zinc, day 2 after wounding",0%
same,% of wounds healed,"[2]; 7.5% bacitracin zinc, day 3 after wounding",38%
same,% of wounds healed,"[2]; 7.5% bacitracin zinc, day 4 after wounding",68%
same,% of wounds healed,"[2]; 7.5% bacitracin zinc, day 5 after wounding",92%
same,% of wounds healed,"[2]; 7.5% bacitracin zinc, day 6 after wounding",98%
same,% of wounds healed,"[2]; 7.5% bacitracin zinc, day 7 after wounding",100%
same,% of wounds healed,"[2]; 8.0% bacitracin zinc, day 2 after wounding",0%
same,% of wounds healed,"[2]; 8.0% bacitracin zinc, day 3 after wounding",12%
same,% of wounds healed,"[2]; 8.0% bacitracin zinc, day 4 after wounding",59%
same,% of wounds healed,"[2]; 8.0% bacitracin zinc, day 5 after wounding",75%
same,% of wounds healed,"[2]; 8.0% bacitracin zinc, day 6 after wounding",90%
same,% of wounds healed,"[2]; 8.0% bacitracin zinc, day 7 after wounding",100%
same,% of wounds healed,"[2]; 9.0% bacitracin zinc, day 2 after wounding",0%
same,% of wounds healed,"[2]; 9.0% bacitracin zinc, day 3 after wounding",4%
same,% of wounds healed,"[2]; 9.0% bacitracin zinc, day 4 after wounding",33%
same,% of wounds healed,"[2]; 9.0% bacitracin zinc, day 5 after wounding",66%
same,% of wounds healed,"[2]; 9.0% bacitracin zinc, day 6 after wounding",90%
same,% of wounds healed,"[2]; 9.0% bacitracin zinc, day 7 after wounding",100%
same,promoting epidermal resurfacing,[2]; applied in an ointment base at concentrations of about 5% to 8%,effective agent for promoting epidermal resurfacing
same,enhancement of healing,[2]; concentration of 4%,some enhancement of healing is observed
same,enhancement of healing,"[2]; higher concentrations, particularly in the range of 6.5%-7.5%",Preferred healing is observed
